# Results reported in ChEMBL document CHEMBL1124302, “Nucleoside conjugates. 10. Synthesis and antitumor activity of 1-beta-D-arabinofuranosylcytosine 5'-diphosphate-1,2-dipalmitins” (J Med Chem, 1988).
# What was measured:
# Format in all cases: organism-based
# Mus musculus [1] = test: Toxicity in mice after 17-35 days at a dose of 400 mg/kg/day; 19/9; details: in vivo
# Mus musculus [2] = test: Toxicity in mice after 17-29 days at a dose of 80 mg/kg/day; 21/9.5; details: in vivo
# Mus musculus [3] = test: Toxicity in mice after 35->45 days at a dose of 133 mg/kg/day; 45/9.5; details: in vivo, 1080 h
# Mus musculus [4] = test: Toxicity in mice after 8->45 days at a dose of 300 mg/kg/day; 45/9; details: in vivo, 1080 h
# Mus musculus [5] = test: Toxicity in mice after 29->45 days at a dose of 60 mg/kg/day; 45/9; details: in vivo, 1080 h
# Mus musculus [6] = test: Toxicity in mice after 9-11 days at a dose of 200 mg/kg/day; 10/9.5; details: in vivo
# Mus musculus [7] = test: Toxicity in mice after 7-14 days at a dose of 100 mg/kg/day; 11/9.5; details: in vivo
# Mus musculus [8] = test: Toxicity in mice after 10 days at a dose of 95 and 190 mg/kg/day; 10/9.5; details: in vivo, 240 h
# Mus musculus [9] = test: Toxicity in mice after 11-12 days at a dose of 19 and 38 mg/kg/day; 11/9.5; details: in vivo
# Mus musculus [10] = test: Toxicity in mice after 14-45 days at a dose of 100 mg/kg/day; 37.5/9; details: in vivo
# Mus musculus [11] = test: Toxicity in mice after 15-45 days at a dose of 60 mg/kg/day; 30/9; details: in vivo
# Mus musculus [12] = test: Toxicity in mice after 32->45 days at a dose of 400 mg/kg/day; 45/9; details: in vivo, 1080 h
# Mus musculus [13] = test: Toxicity in mice after 17-21 days at a dose of 60 mg/kg/day; 21/8.5; details: in vivo
# Mus musculus [14] = test: Toxicity in mice after 13-15 days at a dose of 60 mg/kg/day; 14/8.5; details: in vivo
# Mus musculus [15] = test: Toxicity in mice after 9-12 days at a dose of 200 mg/kg/day; 10.5/9.5; details: in vivo
# Mus musculus [16] = test: Toxicity in mice after 7-8 days at a dose of 200 mg/kg/day; 8/9; details: in vivo
# Mus musculus [17] = test: Toxicity in mice after 7 days at a dose of 200 mg/kg/day; 7/9; details: in vivo, 168 h
# Mus musculus [18] = test: Toxicity in mice after 15-18 days at a dose of 60 mg/kg/day; 15.5/8.5; details: in vivo
# Mus musculus [19] = test: Toxicity in mice after 7-8 days at a dose of 100 mg/kg/day; 7/9; details: in vivo
# Mus musculus [20] = test: Toxicity in mice after 12-13 days at a dose of 100 mg/kg/day; 12/8; details: in vivo
smiles,measurement,setting,value
CCCCCCCCCCCCCCCC(=O)OC[C@@H](COP(=O)(O)OP(=O)(O)OC[C@H]1O[C@@H](n2ccc(N)nc2=O)[C@@H](O)[C@@H]1O)OC(=O)CCCCCCCCCCCCCCC,median survival time,Mus musculus [1],19 days
same,median survival time,Mus musculus [2],21 days
CCCCCCCCCCCCCCCC(=O)OC[C@H](COP(=O)(O)OP(=O)(O)OC[C@H]1O[C@@H](n2ccc(N)nc2=O)[C@@H](O)[C@@H]1O)OC(=O)CCCCCCCCCCCCCCC,median survival time,Mus musculus [3],> 45 days
same,median survival time,Mus musculus [4],> 45 days
same,median survival time,Mus musculus [5],> 45 days
CCCCCCCCCCCCCCCC(=O)OC[C@H](COP(=O)(O)O)OC(=O)CCCCCCCCCCCCCCC.Nc1ccn([C@@H]2O[C@H](COP(=O)(O)O)[C@@H](O)[C@@H]2O)c(=O)n1,median survival time,Mus musculus [6],10 days
same,median survival time,Mus musculus [7],11 days
CCCCCCCCCCCCCCCC(=O)OC[C@@H](COP(=O)(O)O)OC(=O)CCCCCCCCCCCCCCC.Nc1ccn([C@@H]2O[C@H](COP(=O)(O)O)[C@@H](O)[C@@H]2O)c(=O)n1,median survival time,Mus musculus [8],10 days
same,median survival time,Mus musculus [9],11 days
CCCCCCCCCCCCCCCC(=O)OCC(COP(=O)(O)OP(=O)(O)OC[C@H]1O[C@@H](n2ccc(N)nc2=O)[C@@H](O)[C@@H]1O)OC(=O)CCCCCCCCCCCCCCC (mixture of isomers),median survival time,Mus musculus [10],37.5 days
same,median survival time,Mus musculus [11],30 days
same,median survival time,Mus musculus [12],> 45 days
Nc1ccn([C@@H]2O[C@H](CO)[C@@H](O)[C@@H]2O)c(=O)n1 [CYTARABINE],median survival time,Mus musculus [13],21 days
same,median survival time,Mus musculus [14],14 days
same,median survival time,Mus musculus [15],10.5 days
same,median survival time,Mus musculus [16],8 days
same,median survival time,Mus musculus [17],7 days
same,median survival time,Mus musculus [18],15.5 days
same,median survival time,Mus musculus [19],7 days
same,median survival time,Mus musculus [20],12 days
